In the NIST ThermoML archive (doi:10.1021/je060271a):

Settings: 303.15 K, Liquid, Vibrating tube method

CCCCCCCC(=O)OCC(COC(=O)CCCCCCC)(COC(=O)CCCCCCC)COC(=O)CCCCCCC [pentaerythritol tetraoctanoate]
Settings	mass density [kg/m3]
7240.6 kPa	959.8
7273.2 kPa	959.8
7299.8 kPa	960
7389.7 kPa	960
7422.6 kPa	959.9
7449.6 kPa	959.9
7483.3 kPa	960
7511.3 kPa	960
7544.9 kPa	960
7573.7 kPa	960.1
7608.5 kPa	960.1
7643.5 kPa	960.1
7673.8 kPa	960.1
7703.3 kPa	960.1
7739.3 kPa	960.2
7769.3 kPa	960.2
7806.2 kPa	960.1
7836.8 kPa	960.2
7874 kPa	960.2
7904.9 kPa	960.1
7943.2 kPa	960.2
8013.8 kPa	960.3
8160.1 kPa	960.4
8194.2 kPa	960.5
8236.1 kPa	960.4
8272 kPa	960.5
8310.6 kPa	960.5
8341.7 kPa	960.5
8372.2 kPa	960.5
8402.7 kPa	960.5
8428.6 kPa	960.5
8458.8 kPa	960.7
8489.8 kPa	960.6
8521.4 kPa	960.7
8548.1 kPa	960.7
8580.2 kPa	960.7
8612.1 kPa	960.7
8643.8 kPa	960.7
8676.1 kPa	960.8
8703.6 kPa	960.8
8736.1 kPa	960.7
8769.5 kPa	960.9
8802.3 kPa	960.8
8866 kPa	960.8
8901.6 kPa	960.9
8936.7 kPa	960.9
8961.2 kPa	960.8
8990.2 kPa	960.9
9019.5 kPa	960.9
9048.8 kPa	960.9
9078.2 kPa	961
9103.3 kPa	961
9132.9 kPa	961.1
9163.2 kPa	961
9193.9 kPa	961.1
9224.2 kPa	961
9250.4 kPa	961.1
9281.3 kPa	961
9371.4 kPa	961.1
9403.3 kPa	961.2
9435.5 kPa	961.1
9467.7 kPa	961.2
9500.5 kPa	961.2
9527.3 kPa	961.2
9559.2 kPa	961.2
9592.8 kPa	961.2
9618.8 kPa	961.3
9652.6 kPa	961.3
9687 kPa	961.4
9722.3 kPa	961.4
9750.6 kPa	961.4
9785.2 kPa	961.3
9821.4 kPa	961.4
9856.8 kPa	961.4
9893.5 kPa	961.5
9924.2 kPa	961.5
9961.2 kPa	961.5
9999 kPa	961.5
10037 kPa	961.6
10067 kPa	961.6
10092 kPa	961.6
10122 kPa	961.6
10152 kPa	961.6
10177 kPa	961.6
10208 kPa	961.5
10238 kPa	961.7
10270 kPa	961.6
10302 kPa	961.8
10334 kPa	961.7
10357 kPa	961.7
10380 kPa	961.8
10403 kPa	961.6
10423 kPa	961.7
10447 kPa	961.7
10471 kPa	961.7
10491 kPa	961.8
10514 kPa	961.8
10538 kPa	961.9
10562 kPa	961.9
10582 kPa	961.9
10607 kPa	961.9
10631 kPa	961.9
10656 kPa	961.9
10680 kPa	961.9
10702 kPa	962
10727 kPa	962
10751 kPa	961.9
10779 kPa	961.9
10801 kPa	961.9
10826 kPa	962
10852 kPa	962.1
10878 kPa	962.1
10899 kPa	962
10924 kPa	962.1
10950 kPa	962.1
10975 kPa	962.1
10996 kPa	962.2
11075 kPa	962.1
11103 kPa	962.2
11125 kPa	962.2
11152 kPa	962.2
11180 kPa	962.2
11202 kPa	962.2
11229 kPa	962.4
11257 kPa	962.2
11285 kPa	962.3
11313 kPa	962.3
11337 kPa	962.3
11365 kPa	962.4
11393 kPa	962.3
11422 kPa	962.3
11446 kPa	962.4
11475 kPa	962.3
11504 kPa	962.4
11533 kPa	962.4
11562 kPa	962.4
11587 kPa	962.5
11616 kPa	962.5
11645 kPa	962.6
11669 kPa	962.5
11699 kPa	962.6
11729 kPa	962.4
11760 kPa	962.6
11790 kPa	962.6
11816 kPa	962.6
11847 kPa	962.6
11878 kPa	962.7
11909 kPa	962.6
11935 kPa	962.6
11965 kPa	962.7
11996 kPa	962.7
12028 kPa	962.7
12059 kPa	962.7
12086 kPa	962.8
12118 kPa	962.8
12150 kPa	962.8
12183 kPa	962.8
12208 kPa	962.8
12241 kPa	962.9
12274 kPa	962.8
12307 kPa	962.8
12340 kPa	962.9
12368 kPa	963
12402 kPa	962.9
12436 kPa	963
12470 kPa	963.1
12499 kPa	963.1
12533 kPa	962.9
12568 kPa	963
12603 kPa	963
12633 kPa	963.1
12668 kPa	963.1
12704 kPa	963.1
12734 kPa	963.1
12770 kPa	963.2
12805 kPa	963.2
12841 kPa	963.2
12878 kPa	963.1
12916 kPa	963.2
12947 kPa	963.3
12985 kPa	963.3
13022 kPa	963.3
13059 kPa	963.3
13090 kPa	963.4
13128 kPa	963.3
13167 kPa	963.4
13200 kPa	963.3
13240 kPa	963.3
13279 kPa	963.6
13308 kPa	963.5
13346 kPa	963.4
13386 kPa	963.5
13427 kPa	963.6
13468 kPa	963.5
13501 kPa	963.7
13542 kPa	963.6
13577 kPa	963.5
13611 kPa	963.7
13693 kPa	963.7
13813 kPa	963.7
13941 kPa	963.8
13985 kPa	963.8
14067 kPa	964
14112 kPa	964
14142 kPa	964
14187 kPa	964
14240 kPa	964.1
14286 kPa	964.1
14332 kPa	964.1
14371 kPa	964.1
14417 kPa	964.1
14464 kPa	964.1
14512 kPa	964.2
14551 kPa	964.1
14598 kPa	964.1
14647 kPa	964.2
14697 kPa	964.3
14737 kPa	964.2
14787 kPa	964.4
14836 kPa	964.4
14887 kPa	964.3
14930 kPa	964.3
14981 kPa	964.5
15031 kPa	964.5
15083 kPa	964.5
15135 kPa	964.5
15179 kPa	964.6
15234 kPa	964.6
15288 kPa	964.5
15341 kPa	964.7
15388 kPa	964.7
15447 kPa	964.7
15495 kPa	964.8
15554 kPa	964.8
15616 kPa	964.9
15669 kPa	964.9
15728 kPa	964.9
15758 kPa	964.9
15786 kPa	964.9
15815 kPa	965
15840 kPa	964.9
15869 kPa	964.9
15894 kPa	964.9
15923 kPa	964.9
15952 kPa	965.1
15978 kPa	965
16008 kPa	965.1
16032 kPa	965.1
16062 kPa	965.2
16092 kPa	965.1
16117 kPa	965.2
16148 kPa	965.1
16173 kPa	965.1
16205 kPa	965.1
16230 kPa	965.1
16261 kPa	965.2
16288 kPa	965.2
16319 kPa	965.2
16349 kPa	965.2
16375 kPa	965.3
16407 kPa	965.4
16433 kPa	965.3
16465 kPa	965.2
16496 kPa	965.2
16523 kPa	965.3
16556 kPa	965.3
16586 kPa	965.4
16613 kPa	965.4
16645 kPa	965.4
16672 kPa	965.4
16704 kPa	965.3
16737 kPa	965.5
16764 kPa	965.4
16798 kPa	965.5
16825 kPa	965.4
16853 kPa	965.5
16875 kPa	965.6
16908 kPa	965.6
16952 kPa	965.6
16982 kPa	965.7
17016 kPa	965.6
17044 kPa	965.6
17078 kPa	965.6
17112 kPa	965.7
17141 kPa	965.7
17175 kPa	965.7
17209 kPa	965.7
17238 kPa	965.9
17272 kPa	965.8
17302 kPa	965.9
17339 kPa	965.8
17367 kPa	965.9
17402 kPa	965.8
17434 kPa	965.9
17468 kPa	965.9
17504 kPa	966
